One test deals with T1, mouse RORγ (Mus musculus, UniProt P51450).
T1 construct: mouse RORγ, from Ile251 to Lys516; expressed in transfected cells; host or cells: CHO cells (Chinese hamster ovary), transient co-transfection with pG5-Luc
T1 sequence (P51450 251-516): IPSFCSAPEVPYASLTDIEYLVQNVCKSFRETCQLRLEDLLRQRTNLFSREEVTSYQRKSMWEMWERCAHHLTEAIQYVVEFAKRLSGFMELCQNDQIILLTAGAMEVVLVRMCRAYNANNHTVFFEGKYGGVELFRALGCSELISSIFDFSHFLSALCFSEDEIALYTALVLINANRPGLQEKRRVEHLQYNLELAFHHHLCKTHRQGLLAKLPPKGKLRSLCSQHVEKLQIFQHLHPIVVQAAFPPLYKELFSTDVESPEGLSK
The test can be described thus: In vitro assay of inhibitory effect against RORγ transcriptional activity (GAL4-mRORγ LBD luciferase reporter gene assay in CHO cells). It is filed as cell-based. The following applies: for mRORγ luciferase activity, %-of-control: value in parentheses beside the > EC50 bound, vehicle-control 0.2% DMSO alone = 100%. Put shortly:
(§1)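 Luciferase output, normalised to 0.2% DMSO vehicle (100%), served as the measure of RORγ transcriptional activity. The reporter was driven by GAL4-fused ligand-binding domains of human (residues 253–518) or mouse (251–516) RORγ in transiently transfected CHO cells. Cells received eight-point compound dilutions for 2 days, EC50 values were fitted, and cytotoxic points were dropped.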

The target in the next test is T2, human RORγ (Homo sapiens, UniProt P51449).
T2 construct: human RORγ, from Ser253 to Lys518; expressed in transfected cells; host or cells: CHO cells (Chinese hamster ovary), transient co-transfection with pG5-Luc
T2 sequence (P51449 253-518): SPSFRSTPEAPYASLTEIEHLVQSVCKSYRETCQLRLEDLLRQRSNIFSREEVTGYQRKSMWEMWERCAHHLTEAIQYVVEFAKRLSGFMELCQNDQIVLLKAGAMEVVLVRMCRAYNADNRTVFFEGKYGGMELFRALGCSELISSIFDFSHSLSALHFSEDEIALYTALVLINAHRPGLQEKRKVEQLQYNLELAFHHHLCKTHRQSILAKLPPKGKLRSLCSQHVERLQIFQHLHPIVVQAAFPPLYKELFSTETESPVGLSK
The test can be described thus: In vitro assay of inhibitory effect against RORγ transcriptional activity (GAL4-hRORγ LBD luciferase reporter gene assay in CHO cells). It is filed as cell-based. Conditions: for hRORγ luciferase activity, %-of-control: value in parentheses beside the > EC50 bound, vehicle-control 0.2% DMSO alone = 100%. Put shortly: as §1

Setting [1] is: GAL4-mRORγ LBD luciferase reporter, CHO cells, read-out: LUC EC50 mRORγ.
[2] abbreviates: GAL4-hRORγ LBD luciferase reporter, CHO cells, read-out: LUC EC50 hRORγ.
The mark [3] stands for this setting: GAL4-mRORγ LBD / pG5-Luc in CHO cells, 2 days incubation.
The mark [4] stands for this setting: GAL4-hRORγ LBD / pG5-Luc in CHO cells, 2 days incubation.

pEC50: −log10 of the molar value. Read-outs that look alike come from different tables or passages of the source. Some results are limits rather than exact numbers.

With `CCOC(=O)C1CNCC1N1C=C(C(C)C)[C@](C)(c2ccc(CCC(C)(C)C)c(Cl)c2)NC1=O` (single isomer, unassigned) [Example 244], the values for the negative-log EC50 (pEC50) on mouse RORγ (setting [1]) and at human RORγ (setting [2]) were 6.57 and 6.75, respectively.
Taken in the same sequence, the figures for `CCOC(=O)C1CNCC1N1C=C(C(C)C)[C@](C)(c2ccc(CCC(C)(C)C)c(Cl)c2)NC1=O` (single isomer, unassigned) [Example 245] were 6.52 and 6.58.
Taken in the same sequence, the figures for `CC(C)C1=CN(C2CCCC(C(=O)O)C2)C(=O)N[C@@]1(C)c1ccc(CCC(C)(C)C)c(Cl)c1` (single isomer, unassigned) [Example 254] were 7.55 and 7.55.
Consider `CC(C)C1=CN(C2CCCC(C(=O)O)C2)C(=O)N[C@@]1(C)c1ccc(CCC(C)(C)C)c(Cl)c1` (single isomer, unassigned) [Example 255], for which the pEC50 – broadly, −log10 of the EC50, conventionally taken in molar units – at mouse RORγ (setting [1]) is 6.53; at human RORγ (setting [2]), 6.56.
Taken in the same sequence, the figures for `CC(C)C1=CN(C2CCCC(C(=O)O)C2)C(=O)N[C@@]1(C)c1ccc(CCC(C)(C)C)c(Cl)c1` (single isomer, unassigned) [Example 256] were 7.59 and 7.66.
Regarding `CC(C)C1=CN(C2CCCC(C(=O)O)C2)C(=O)N[C@@]1(C)c1ccc(CCC(C)(C)C)c(Cl)c1` (single isomer, unassigned) [Example 257], the figures for the negative-log EC50 (pEC50) at mouse RORγ (setting [1]) and at human RORγ (setting [2]) were 6.94 and 6.78, respectively.
As to `COC1CC(C2=CN(c3ccc(C(=O)O)cc3)C(=O)N[C@@]2(C)c2ccc(CCC(C)(C)C)c(Cl)c2)C1` (single isomer, unassigned) [Example 276], the pEC50 on mouse RORγ (setting [1]) is 7.33; on human RORγ (setting [2]) it was 7.55.
`COC1CC(C2=CN(c3ccc(C(=O)O)cc3)C(=O)N[C@@]2(C)c2ccc(CCC(C)(C)C)c(Cl)c2)C1` (single isomer, unassigned) [Example 277]: the pEC50 on mouse RORγ (setting [1]) was 7.42; at human RORγ (setting [2]), 7.64.
For the compound `CC(C)C1=CN(C2CCC(C(=O)O)C2)C(=O)N[C@@]1(C)c1ccc(CCC(C)(C)C)c(Cl)c1` (single isomer, unassigned) [Example 278], the pEC50 on mouse RORγ (setting [1]) and on human RORγ (setting [2]) was 7.89 each time.
With `CC(C)C1=CN(C2CCC(C(=O)O)C2)C(=O)N[C@@]1(C)c1ccc(CCC(C)(C)C)c(Cl)c1` (single isomer, unassigned) [Example 279], the pEC50 was 7.66 on mouse RORγ (setting [1]) and 7.80 at human RORγ (setting [2]).
On the same counts, the results for `CC(C)C1=CN(C2CCC(C(=O)O)C2)C(=O)N[C@@]1(C)c1ccc(CCC(C)(C)C)c(Cl)c1` (single isomer, unassigned) [Example 280] are 7.38 and 7.59.
On the same counts, the results for `CC(C)(C)CCc1ccc([C@]2(C)NC(=O)N(C3CC(C)(C)C3)C=C2[C@H]2C[C@H](C(=O)O)C2)cc1Cl` (single isomer, unassigned) [Example 287] are 7.47 and 7.44.
In the case of `CC(C)C1=CN(CC(C)C(=O)O)C(=O)N[C@@]1(C)c1ccc(CCC(C)(C)C)c(Cl)c1` (single isomer, unassigned) [Example 299], the pEC50 on mouse RORγ (setting [1]) was 7.80; at human RORγ (setting [2]), 7.96.
As for `CC(C)C1=CN(CC(C)C(=O)O)C(=O)N[C@@]1(C)c1ccc(CCC(C)(C)C)c(Cl)c1` (single isomer, unassigned) [Example 300], the pEC50 on mouse RORγ (setting [1]) was 7.85; on human RORγ (setting [2]), 8.00.
In the case of `COCC(C)C1=CN(CCC(=O)O)C(=O)N[C@@]1(C)c1ccc(CCC(C)(C)C)c(Cl)c1` (single isomer, unassigned) [Example 305], the pEC50 is 8.22 at mouse RORγ (setting [1]) and 8.52 on human RORγ (setting [2]).
On the same counts, the results for `COCC(C)C1=CN(CCC(=O)O)C(=O)N[C@@]1(C)c1ccc(CCC(C)(C)C)c(Cl)c1` (single isomer, unassigned) [Example 306] are 7.57 and 7.20.
For `COCC(C)C1=CN(c2ccc(C(=O)O)cc2)C(=O)N[C@@]1(C)c1ccc(CCC(C)(C)C)c(Cl)c1` (single isomer, unassigned) [Example 307], the figures for the pEC50 at mouse RORγ (setting [1]) and at human RORγ (setting [2]) were 7.89 and 8.30, respectively.
Turning to `COCC(C)C1=CN(c2ccc(C(=O)O)cc2)C(=O)N[C@@]1(C)c1ccc(CCC(C)(C)C)c(Cl)c1` (single isomer, unassigned) [Example 308], the values for the pEC50 on mouse RORγ (setting [1]) and at human RORγ (setting [2]) were 7.60 and 7.49, respectively.
In the case of `CC(C)C1=CN(CCC(=O)O)C(=O)N[C@@]1(C)c1ccc(CC(O)C(C)(C)C)c(Cl)c1` (single isomer, unassigned) [Example 310], the pEC50 on mouse RORγ (setting [1]) is 6.56; at human RORγ (setting [2]), 6.32.
Taken in the same sequence, the figures for `CC(C)C1=CN(CCC(=O)O)C(=O)N[C@@]1(C)c1ccc(CC(O)C(C)(C)C)c(Cl)c1` (single isomer, unassigned) [Example 311] were 7.03 and 7.07.
Taken in the same sequence, the figures for `COC(=O)[C@H]1C[C@H](N2C=C([C@H]3C[C@@H](CO)C3)[C@](C)(c3ccc(CCC(C)(C)C)c(Cl)c3)NC2=O)C1` (single isomer, unassigned) [Example 312] were 6.27 and 6.61.
On the same counts, the results for `COCCC1=CN(C23CCC(C(=O)O)(C2)C3)C(=O)N[C@@]1(C)c1ccc([C@H]2C[C@@H](C(C)(C)C)C2)c(Cl)c1` (single isomer, unassigned) [Example 344] are 7.92 and 7.89.
Consider `COCC(C)C1=CN(C23CCC(C(=O)O)(C2)C3)C(=O)N[C@@]1(C)c1ccc(CCC(C)(C)C)c(Cl)c1` (single isomer, unassigned) [Example 351], for which the pEC50 at mouse RORγ (setting [1]) is 7.96; at human RORγ (setting [2]), 8.40.
On the same counts, the results for `COCC(C)C1=CN(C23CCC(C(=O)O)(C2)C3)C(=O)N[C@@]1(C)c1ccc(CCC(C)(C)C)c(Cl)c1` (single isomer, unassigned) [Example 352] are 7.29 and 7.20.
As for `CC(C)C1=CN(CCCC(=O)O)C(=O)N[C@]1(C)c1ccc(CCC(C)(C)C)c(Cl)c1` [Example 14], the pEC50 at mouse RORγ (setting [3]) and on human RORγ (setting [4]) was less than 5.10 throughout. For the same compound, the “mRORγ luciferase activity, %-of-control” value on mouse RORγ is recorded as “(59%)”. Moreover, the “hRORγ luciferase activity, %-of-control” value on human RORγ is “(69%)”.
On to `CC(C)C1=CN(CCCC(=O)O)C(=O)N[C@@]1(C)c1ccc(CCC(C)(C)C)c(Cl)c1` [Example 15], for which the pEC50 at mouse RORγ (setting [3]) and on human RORγ (setting [4]) was 7.92 in each case.
For `CC(C)(C)CCc1ccc([C@@]2(C)NC(=O)N(CCCC(=O)O)C=C2C2CCCCC2)cc1Cl` [Example 31], the pEC50 at mouse RORγ (setting [3]) was less than 5.49; at human RORγ (setting [4]), 5.51. In addition, the “mRORγ luciferase activity, %-of-control” value at mouse RORγ was “(52%)”.
As to `CC(C)(C)CCc1ccc([C@]2(C)NC(=O)N(CCCC(=O)O)C=C2C2CCCCC2)cc1Cl` [Example 32], the pEC50 is 7.34 on mouse RORγ (setting [3]) and 7.59 on human RORγ (setting [4]).
On to `CC(C)C1=CN(CC(C)(C)CC(=O)O)C(=O)N[C@]1(C)c1ccc(CCC(C)(C)C)c(Cl)c1` [Example 35], for which the pEC50 on mouse RORγ (setting [3]) and on human RORγ (setting [4]) was less than 5.49 in each case. Moreover, on mouse RORγ, the “mRORγ luciferase activity, %-of-control” value is on record as “(52%)”. Also, at human RORγ, the “hRORγ luciferase activity, %-of-control” value was “(51%)”.
Turning to `CC(C)C1=CN(CC(C)(C)CC(=O)O)C(=O)N[C@@]1(C)c1ccc(CCC(C)(C)C)c(Cl)c1` [Example 36], the values for the pEC50 at mouse RORγ (setting [3]) and at human RORγ (setting [4]) were 7.62 and 7.68, respectively.
On the same counts, the results for `CC(C)CC1=CN(CCCC(=O)O)C(=O)N[C@]1(C)c1ccc(CCC(C)(C)C)c(Cl)c1` [Example 37] are 6.55 and 6.81.
On to `CC(C)CC1=CN(CCCC(=O)O)C(=O)N[C@@]1(C)c1ccc(CCC(C)(C)C)c(Cl)c1` [Example 38], for which the pEC50 at mouse RORγ (setting [3]) is 7.82; on human RORγ (setting [4]), 7.96.
With `CC(C)C1=CN([C@H]2C[C@H](C(=O)O)C2)C(=O)N[C@]1(C)c1ccc(CCC(C)(C)C)c(Cl)c1` [Example 41], the pEC50 on mouse RORγ (setting [3]) and on human RORγ (setting [4]) was less than 5.10 throughout. In addition, the “mRORγ luciferase activity, %-of-control” value at mouse RORγ was “(61%)”. Also, the “hRORγ luciferase activity, %-of-control” value on human RORγ is recorded as “(59%)”.
For `CC(C)C1=CN([C@H]2C[C@H](C(=O)O)C2)C(=O)N[C@@]1(C)c1ccc(CCC(C)(C)C)c(Cl)c1` [Example 42], the pEC50 at mouse RORγ (setting [3]) is 7.55; at human RORγ (setting [4]) it was 7.51.
In the case of `CC(C)CCC1=CN(CCCC(=O)O)C(=O)N[C@]1(C)c1ccc(CCC(C)(C)C)c(Cl)c1` [Example 43], the pEC50 on mouse RORγ (setting [3]) was 6.08; on human RORγ (setting [4]) it was 6.25.
Take `CC(C)CCC1=CN(CCCC(=O)O)C(=O)N[C@@]1(C)c1ccc(CCC(C)(C)C)c(Cl)c1` [Example 44]: the values for the pEC50 on mouse RORγ (setting [3]) and on human RORγ (setting [4]) were 7.05 and 7.29, respectively.

(Values after patent publication US10196363B2, “Dihydropyrimidin-2-one compounds and medical use thereof” (JAPAN TOBACCO INC., priority 2014, dated 2019).)
